According to patent EP0666253A1, “N-t-BUTYLANILINE ANALOG AND LIPID LEVEL DEPRESSANT CONTAINING THE SAME” (priority 1992, dated 1994):
Structures can show the parent of a compound that is named as a salt. Where two headings read alike, the source gives them in different places.

Experiments:
[1] = tested on: lipid level in blood; experiment: Action on the lipid level in blood (rats on high cholesterol feed); assay type: in vivo, Male Wistar strain rats; settings: Rattus norvegicus, relative to the control, oral 25 mg/kg/day, starved 24 hours after final administration; for change in vivo at 25 mg/kg/day: high density lipoprotein-cholesterol, read-out: HDL-Ch increase rate
Procedure: Male Wistar strain rats with weights of about 200 g were given a high cholesterol feed containing 1 % cholesterol and 0.5 % cholic acid. Simultaneously, a suspension of a test compound in 5 % aq. gum arabic was orally administered in an amount of 25 mg/kg/day. After the final administration, the animals were starved for 24 hours and then evaluated for serum total cholesterol (TC), high density lipoprotein-cholesterol (HDL-Ch) and serum triglyceride (TG) content. The control group was orally given 5 % aq. solution of gum arabic. […] In Table 4, test compounds Nos. 1 to 11 correspond respectively to the hydrochlorides of the compounds of Examples 1 to 11.

[2] = tested on: hepatic parenchymal cells; experiment: Action on incorporation of LDL (radioisotope-labeled LDL, primary culture); assay type: cell-based, male Wistar strain rat; settings: Rattus norvegicus; relative to the control (DMSO only); test compound 10 µg/ml, incubated 24 hours, then labeled LDL for 4 hours; read-out: incorporation ratio of LDL
Procedure: hepatic cells were separated from the liver of a male Wistar strain rat weighing about 200 g, and the hepatic parenchymal cells were incubated in primary culture. 48 hours thereafter, a solution of a test compound in dimethylsulfoxide (DMSO) (10 µg/ml) was added thereto and incubated for 24 hours. Then, a radioisotope-labeled low density lipoprotein (LDL) was added thereto, and incubation was continued for further 4 hours. The cells were washed with physiological saline and then lysed with sodium dodecyl sulfate (SDS), and their radioactivity was determined in a liquid scintillation counter. The control group was treated in the same manner as above except for the addition of DMSO only. […] In Table 5, the test compounds 1 to 11 correspond respectively to the hydrochlorides of the compounds of Examples 1 to 11.

[3] = in vivo; settings: mouse
Procedure: Acute toxicity was examined in the Litchfield and Wilcoxon's method where 10 ICR male mice were orally given a test compound.
The LD₅₀ of clofibrate was 1600 mg/kg.

[4] = serum total cholesterol, suspension in 5 % aq. gum arabic, read-out: TC decrease rate
[5] = serum triglyceride, read-out: TG decrease rate

| SMILES | change in vivo at 25 mg/kg/day [1] | inhibition in vivo at 25 mg/kg/day [1, 4] | inhibition in vivo at 25 mg/kg/day [1, 5] | activation at 10 µg/mL [2] | LD50 ([3]; male, ICR, po) | LD50 ([3]; oral, 10 ICR male mice, read-out: LD₅₀) |
| --- | --- | --- | --- | --- | --- | --- |
| CC(C)(C)N(c1ccc(Oc2ccccc2)cc1)S(C)(=O)=O [compound of Reference Example 3, 4-(N-t-butyl)methanesulfonylaminodiphenyl ether] | -0.7% | 3.6% | -2.1% | -15.7% |  |  |
| CCOC(=O)C(C)(C)Oc1ccc(Cl)cc1 [clofibrate] | -1.6% | 1.2% | -0.9% | -10.5% | 1600 mg/kg |  |
| CCN(CC)c1ccc(Sc2ccc(C)cc2)cc1 [compound of Reference Example 4, N,N-diethyl-4-(4-tolylthio)aniline] |  | -16.2% | 30% |  |  |  |
| CC(C)(C)Nc1ccc(Sc2ccccc2)cc1 [test compound 1, 4-(t-butylamino)diphenylsulfide hydrochloride] | 39.4% | 95.7% | 48.5% | 65.3% |  | > 5000 mg/kg |
